# Experiments:
# Sclerotinia sclerotiorum = experiment: Antifungal activity against benzimidazole-sensitive Sclerotinia sclerotiorum SS-JSZ01 assessed as inhibition of mycelium growth after 3 days followed by 96 hr incubation in light incubator; type: functional, organism-based
# Botrytis cinerea = experiment: Antifungal activity against benzimidazole moderately resistant Botryotinia fuckeliana BC-JfC02 assessed as inhibition of mycelium growth after 3 days followed by 96 hr incubation in light incubator; type: functional, organism-based
SMILES,EC50 (Sclerotinia sclerotiorum),EC50 (Botrytis cinerea)
CCSc1nnc(-c2nc3ccccc3n2Cc2ccc(F)cc2)o1,8.86 µg/mL,3.08 µg/mL
CC(C)Sc1nnc(-c2nc3ccccc3[nH]2)o1,23.4 µg/mL,24.1 µg/mL
CCCSc1nnc(-c2nc3ccccc3[nH]2)o1,18.2 µg/mL,16.6 µg/mL
CC(C)Sc1nnc(-c2nc3ccccc3n2Cc2ccc(F)cc2)o1,10.2 µg/mL,11.4 µg/mL
CCSc1nnc(-c2nc3ccccc3[nH]2)o1,1.31 µg/mL,2.7 µg/mL
c1ccc(CSc2nnc(-c3nc4ccccc4[nH]3)o2)cc1,22.9 µg/mL,18.4 µg/mL
Fc1ccc(CSc2nnc(-c3nc4ccccc4n3Cc3ccc(F)cc3)o2)cc1,7.52 µg/mL,13.9 µg/mL
Fc1ccc(CSc2nnc(-c3nc4ccccc4[nH]3)o2)cc1,20.5 µg/mL,12.8 µg/mL
CCCCSc1nnc(-c2nc3ccccc3n2Cc2ccc(F)cc2)o1,0.94 µg/mL,6.26 µg/mL
CCCCSc1nnc(-c2nc3ccccc3[nH]2)o1,9.12 µg/mL,9.86 µg/mL
CCCSc1nnc(-c2nc3ccccc3n2Cc2ccc(F)cc2)o1,2.03 µg/mL,5.63 µg/mL
Fc1ccc(Cn2c(-c3nnc(SCc4ccc(Cl)cc4)o3)nc3ccccc32)cc1,0.43 µg/mL,6.07 µg/mL
Clc1ccc(CSc2nnc(-c3nc4ccccc4[nH]3)o2)c(Cl)c1,22.7 µg/mL,16.4 µg/mL
Fc1ccc(Cn2c(-c3nnc(SCc4ccc(Cl)cc4Cl)o3)nc3ccccc32)cc1,0.55 µg/mL,7.81 µg/mL
Fc1ccc(Cn2c(-c3nnc(SCc4ccccc4)o3)nc3ccccc32)cc1,0.04 µg/mL,1.31 µg/mL
Clc1ccc(CSc2nnc(-c3nc4ccccc4[nH]3)o2)cc1,9.1 µg/mL,14.8 µg/mL
CSc1nnc(-c2nc3ccccc3n2Cc2ccc(F)cc2)o1,12.4 µg/mL,14 µg/mL
COC(=O)Nc1nc2ccccc2[nH]1 [CARBENDAZIM],0.13 µg/mL,7.4 µg/mL
CSc1nnc(-c2nc3ccccc3[nH]2)o1,2.04 µg/mL,10.6 µg/mL

# Source: ChEMBL document CHEMBL3045493, “Synthesis and antifungal activity of novel 2,5-disubstituted-1,3,4-oxadiazoles containing benzimidazole moiety” (J Pestic Sci, 2012)
